Values of other authors in patent publication EP4459286A1, “KIT FOR QUANTITATIVELY DETERMINING TACROLIMUS IN WHOLE BLOOD BY LOW-RESISTANCE LATEX-ENHANCED IMMUNE COMPETITION METHOD, AND USE THEREOF” (SHANGHAI YUNZE BIOTECHNOLOGY CO., LTD, priority 2021, dated 2023).
Where two headings read alike, the source gives them in different places.

Legend:
[1] = rescue therapy, cyclosporine ineffective
[2] = compared with cyclosporine

## C=CC[C@@H]1/C=C(\C)C[C@H](C)C[C@H](OC)[C@H]2O[C@@](O)(C(=O)C(=O)N3CCCC[C@H]3C(=O)O[C@H](/C(C)=C/[C@@H]3CC[C@@H](O)[C@H](OC)C3)[C@H](C)[C@@H](O)CC1=O)[C@H](C)C[C@@H]2OC [tacrolimus, Tacrolimus]
[1]; kidney transplantation patients
  success rate: 74%
[1]; liver transplantation patients
  success rate: 87%
[2]
  effect of preventing rejection in various organ transplants: superior to that of cyclosporine
